Measurements published in patent publication US11684067B2, “Generation of peroxyformic acid through polyhydric alcohol formate” (priority 2014, dated 2023).
Structures can show the parent of a compound that is named as a salt.

What was measured:
[1] = test system: Aspergillus brasiliensis ATCC 16404; assay: Fungicidal activity of ester PFA, dirty conditions (Example 20); type: cell-based; conditions: 35°C, 5 minutes
Text: Various Bacillus and Aspergillus pathogens were used to evaluate the micro efficacy of ester PFA generated according to methods of the present invention.

[2] = test system: Nalidixic acid resistant E. coli O157:H7; assay: Reduction of E. coli on raw beef brisket, dip treatment; type: cell-based; conditions: 10 minutes dip, ambient, 220 ppm POAA / 180 ppm PFA / 50 ppm LAS per formula (Table 15)
Procedure: Nalidixic acid resistant E. coli O157:H7 was used to evaluate the efficacy in treatment with performic acid composition on raw beef brisket according to the conditions shown in Table 14.
The generation of PFA from the perhydrolysis of glycerol formates, PFA formulations, POAA formations and controls were evaluated as shown in Table 15.

pseudomonas = assay: Suspension test in cooling tower water samples; type: cell-based; conditions: 5 ppm Ester PFA / 6.13 ppm POAA, 10 minutes
Procedure: The antimicrobial efficacy of peroxyformic acid generated through the perhydrolysis of glycerol formatted were tested against pseudomonas in cooling tower samples at both 25° C. and 37° C., along with the peroxyacetic acid (POAA) controls, and the results are summarized in Table 6 and 7 below.

[3] = test system: Aspergillus brasiliensis ATCC 16403; assay: Anti-fungal suspension test of Ester PFA, dirty conditions; type: cell-based
Text: Aspergillus brasilensis ATCC 16403 was used to evaluate the efficacy in treatment with performic acid compositions according to the conditions shown in Table 18.

[4] = Perhydrolysis of esters in H2O2 solution, peracid by iodometric titration; type: physicochemical; conditions: 50 ppm ester; for peracid generation under the tested conditions: 150 ppm H2O2, pH 8.5; for Peracid: 150 ppm H2O2, pH 8.5, ambient
Procedure: (§1) [drawing 8] were added to 150 ppm H2O2 solution of pH 8.5 (DI water adjusted by adding 3.0 g of NaHCO3 per liter of water and then adjusted pH with Na2CO3) respectively under ambient conditions. The concentration of peroxycarboxylic acids were measured by an iodometric titration method.
as §1, with “Fifty (50) ppm various formic acid esters” for “[drawing 8]”, “method. […]” for “method.”

[5] = Peninsula Cooling Water pH 8.81, 25°C
[6] = Peninsula Cooling Water pH 8.81, 37°C

Q: With `O=COO` [Ester PFA, peroxyformic acid] as the compound, how does the “Log10 Growth” value ([1]; Table 23: 300 ppm PFA) read?
A: 3.87 Log10

Q: What about the “Log10 Reduction” value ([1]; Table 23: 300 ppm PFA) of the same compound?
A: 2.26 Log10

Q: And the “Log10 Growth” value ([1]; Table 23: 350 ppm PFA)?
A: 2.23 Log10

Q: What about the “Log10 Reduction” value ([1]; Table 23: 350 ppm PFA) of the same compound?
A: 3.91 Log10

Q: What about the “Average Log CFU/cm2” value [2] of the same compound?
A: 2.74 Log CFU/cm2

Q: What about the “Log reduction” value [2] of the same compound?
A: 1.30 Log

Q: And the “Avg. Log10 Growth” value (pseudomonas; BP Cooling Water pH 8.74, 25°C)?
A: 2.74 Log10

Q: And the “Log10 Reduction” value (pseudomonas; BP Cooling Water pH 8.74, 25°C)?
A: 2.93 Log10

Q: What about the “Avg. Log10 Growth” value (pseudomonas; BP Cooling Water pH 8.74, 37°C) of the same compound?
A: 2.68 Log10

Q: What about the “Log10 Reduction” value (pseudomonas; BP Cooling Water pH 8.74, 37°C) of the same compound?
A: 2.42 Log10

Q: And the “Avg. Log10 Growth” value (pseudomonas; [5])?
A: 2.76 Log10

Q: And the “Log10 Reduction” value (pseudomonas; [5])?
A: 2.42 Log10

Q: And the “Avg. Log10 Growth” value (pseudomonas; [6])?
A: 2.70 Log10

Q: What about the “Log10 Reduction” value (pseudomonas; [6]) of the same compound?
A: 2.40 Log10

Q: What about the “Log10 Growth” value ([3]; 320 ppm PFA, 20°C, 5 minutes) of the same compound?
A: 3.27 Log10

Q: What about the “Log10 Reduction” value ([3]; 320 ppm PFA, 20°C, 5 minutes) of the same compound?
A: 2.57 Log10

Q: And the “Log10 Growth” value ([3]; 320 ppm PFA, 20°C, 10 minutes)?
A: 2.22 Log10

Q: What about the “Log10 Reduction” value ([3]; 320 ppm PFA, 20°C, 10 minutes) of the same compound?
A: 3.61 Log10

Q: And the “Log10 Growth” value ([3]; 320 ppm PFA, 30 C., 5 minutes)?
A: 2.19 Log10

Q: What about the “Log10 Reduction” value ([3]; 320 ppm PFA, 30 C., 5 minutes) of the same compound?
A: 3.64 Log10

Q: And the “Log10 Growth” value ([3]; 320 ppm PFA, 30 C., 10 minutes)?
A: <2.15 Log10

Q: And the “Log10 Reduction” value ([3]; 320 ppm PFA, 30 C., 10 minutes)?
A: >3.68 Log10

Q: And the “Log10 Growth” value ([3]; 400 ppm PFA, 20°C, 5 minutes)?
A: <2.15 Log10

Q: And the “Log10 Reduction” value ([3]; 400 ppm PFA, 20°C, 5 minutes)?
A: >3.68 Log10

Q: And the “Log10 Growth” value ([3]; 400 ppm PFA, 20°C, 10 minutes)?
A: <2.15 Log10

Q: And the “Log10 Reduction” value ([3]; 400 ppm PFA, 20°C, 10 minutes)?
A: >3.68 Log10

Q: What about the “Log10 Growth” value ([3]; 400 ppm PFA, 30 C., 5 minutes) of the same compound?
A: 1.48 Log10

Q: And the “Log10 Reduction” value ([3]; 400 ppm PFA, 30 C., 5 minutes)?
A: 4.36 Log10

Q: What about the “Log10 Growth” value ([3]; 400 ppm PFA, 30 C., 10 minutes) of the same compound?
A: <2.15 Log10

Q: What about the “Log10 Reduction” value ([3]; 400 ppm PFA, 30 C., 10 minutes) of the same compound?
A: >3.68 Log10

Q: Which results are given for `CCOC=O` [Ethyl formate]?
A: peracid generation under the tested conditions [4]: no detectable peracid; Peracid ([4]; 1 min): 0.00 ppm; Peracid ([4]; 5 min): 0.00 ppm; Peracid ([4]; 10 min): 0.00 ppm; Peracid ([4]; 15 min): 0.00 ppm; Peracid ([4]; 25 min): 0.00 ppm; Peracid ([4]; 35 min): 0.00 ppm

Q: For `CC(=O)OCC(COC(C)=O)OC(C)=O` [Triacetin], which “peracid generation under the tested conditions” value [4] is on record?
A: no detectable peracid

Q: What about the Peracid ([4]; 1 min) of the same compound?
A: 0.00 ppm

Q: What about the Peracid ([4]; 5 min) of the same compound?
A: 0.00 ppm

Q: What about the Peracid ([4]; 10 min) of the same compound?
A: 0.00 ppm

Q: What about the Peracid ([4]; 15 min) of the same compound?
A: 0.00 ppm

Q: And the Peracid ([4]; 25 min)?
A: 0.00 ppm

Q: And the Peracid ([4]; 35 min)?
A: 0.00 ppm
